Experimental data published in patent US10925971B2, “Methods of treating PRLR positive breast cancer” (Regeneron Pharmaceuticals, Inc., priority 2016, dated 2021).
Like-named read-outs stand apart in the source and are kept apart here. Square brackets hold non-standard residues; d marks the D form. Peptide text beside a SMILES is read from it. * marks the point of attachment. Dolaproine = CO[C@@H]([C@@H]1CCCN1)[C@@H](C)C(=O)O; Dil = CC[C@H](C)[C@H](NC)[C@@H](CC(=O)O)OC; X1 = C[C@@H](N*)[C@@H](O)c1ccccc1; NMeV = CN[C@H](C(=O)O)C(C)C

How the values were obtained:
T47D cells = assay: In vitro cell viability (cell kill) assay, CCK8; type: cell-based, human; conditions: T47D; for IC50: read-out: IC50
Protocol: (§1) Next, the ability of anti-PRLR-DM1 antibody-drug conjugates (i.e., anti-PRLR antibodies conjugated to DM1 via a non-cleavable linker [SMCC]) to reduce cell viability was determined using in vitro cell based assays. Cells were seeded in PDL-coated 96 well plates at 1500 to 10000 cells per well in complete growth media and allowed to grow overnight. For cell viability curves, ADCs or free DM1 (as the methyl disulfide derivative DM1-SMe) were added to the cells at final concentrations ranging from 500 nM to 5 pM and incubated for 3 days. The 293, PC3 and T47D cells were incubated with CCK8 (Dojindo, Rockville, Md.) for the final 1-3 hours and the absorbance at 450 nm (OD450) was determined on a Flexstation3 (Molecular Devices, Sunnyvale, Calif.). MCF7 cells were treated with Hoechst 33342 nuclear stain while being fixed with 4% formaldehyde. Images were acquired on the ImageXpress micro XL (Molecular Devices, Sunnyvale, Calif.) and nuclear counts were determined via Columbus image analysis software (Perkin Elmer, Shelton, Conn.). Background OD450 values (PC3, 293, and T47D) or nuclear counts (MCF7) from digitonin (40 nM) treated cells was subtracted from all wells and viability was expressed as a percentage of the untreated controls. IC50 values were determined from a four-parameter logistic equation over a 10-point response curve (GraphPad Prism).

HEK293 (293) cells = assay: In vitro cell viability (cell kill) assay, CCK8; type: cell-based, human
Description: (§2) PRLR-overexpressing cells, including HEK293, PC3, MCF7 and NCI-N87, were generated to assess the ability of anti-PRLR conjugated antibodies to reduce cell viability. For comparative purposes, PC3 and T47D cells with overexpressed ErbB2 were also generated, as well as an MCF7 cell line over-expressing both hPRLR and hErbB2. Briefly, Lipofectamine® 2000-mediated transfection methodology was utilized to generate HEK293 cells expressing human PRLR (HEK293/hPRLR) or human ErbB2 (HEK293/hErbB2). Lipofectamine LTX with Plus Reagent was used to generate PC3 cells expressing human PRLR (PC3/hPRLR) or human ErbB2 (PC3/hErbB2). Lentiviral-mediated transduction was utilized to generate MCF7 cells expressing human PRLR (MCF7/hPRLR), NCI-N87 cells expressing human PRLR (NCI-N87/hPRLR), T47D cells over-expressing human ErbB2 (T47D/hErbB2), and MCF7 cells expressing both human PRLR and human ErbB2 (MCF7/hPRLR/hErbB2). All lines were selected for at least two weeks in complete growth media plus appropriate selection reagents. Stably expressing populations were enriched for PRLR expression via FACS using the anti PRLR antibody Control I.
as §1

[1] = tested on: MCF7/hPRLR (MCF7/PRLR) cells; assay: In vitro cell viability (cell kill) assay, nuclear counts; type: cell-based, human
Description: as §2, §1

MCF7 (MCF7/ATCC) cells = assay: as above; type: cell-based, human; conditions: MCF7/ATCC
Description: as §2, §1

PC3 cells = assay: In vitro cell viability (cell kill) assay, CCK8; type: cell-based, human
Description: as §2, §1

PC3/hPRLR cells = assay: In vitro cell viability (cell kill) assay, CCK8; type: cell-based, human; conditions: Table 18
Description: as §2, §1

MCF7/PRLR tumors = assay: MCF7/PRLR breast cancer xenograft, tumor size and tumor growth inhibition; type: in vivo, NCr nude mice; conditions: MCF7/PRLR tumors TRIAL #2, NCr Nude mice, Day 63
Description: (§3) Briefly, 20×10^6 MCF7/PRLR cells (ATCC HTB-22 transfected with full length hPRLR as previously described) were implanted subcutaneously into the left mammary fat pad of female NCr nude mice. In other studies, 10×10^6 PC3/PRLR (ATCC CRL-1435 transfected with full length hPRLR as previously described) were implanted subcutaneously into the left flank of male SCID mice. Additionally, 10×10^6 parental T47D (ATCC HTB-133) or 7.5×10^10 T47D #11 cells (ATCC HTB-133 serially passaged in vivo as described below) were subcutaneously implanted into the left flank of female CB17 SCID mice. All mice were obtained from Taconic (Hudson, N.Y.). Each bolus of cells was supplemented with a 90-day estrogen release pellet (1.7 mg/pellet; Innovative Research America, Sarasota Fla.). […] Control reagents included PBS vehicle, free methyl-disulfide DM1 (DM1-SMe) and isotype Control 1-DM1.
(§4) In multi-dose studies, mice were dosed once a week for a total of three weeks with tumor volumes and body weights being monitored twice weekly throughout the study. Test ADCs were dosed at 5 and/or 15 mg/kg in the multi-dose studies. In single-dose studies, mice received a single dose of test ADC, and tumor volumes and body weights were monitored twice weekly throughout the study. Test ADCs were dosed at 1, 2.5, 5, and 15 mg/kg in the single-dose studies. Average tumor size as well as tumor growth inhibition relative to the vehicle treated group were calculated for each group. Tumors were measured with calipers twice a week until the average size of the vehicle group reached 1000 mm^3. Tumor size was calculated using the formula (length×width^2)/2. Tumor growth inhibition was calculated according to the following formula: (1−((Tfinal−Tinitial)/(Cfinal−Cinitial)))*100, where T (treated group) and C (control group) represent the mean tumor mass on the day the vehicle group reached 1000 mm^3. […] Results are summarized in Tables 21-25 (multi-dose) and Table 26 (single dose). (NT=not tested in the particular experiment shown).

PC3/PRLR tumors = assay: PC3/PRLR xenograft, tumor size and tumor growth inhibition; type: in vivo, SCID mice; conditions: PC3/PRLR tumors TRIAL #2, SCID mice, Day 55
Description: as §3, §4

PRLR expressing cells = assay: In vitro cell viability (cell kill) assay, several cell backgrounds; type: cell-based, human; conditions: PC3/hPRLR and MCF7/hPRLR cell lines
Description: as §2, §1

T47D#11 tumors = type: in vivo, CB17 SCID mice; conditions: for Final Tumor size mm^3 (mean ± SEM) / Average Tumor Growth Inhibition (%): T47D#11 tumors, SCID mice, Day 66; for T47D #11 tumor growth: repeat dosing 5 and 15 mg/kg
Description: as §3, §4

## COc1cc2cc(c1Cl)N(C)C(=O)C[C@H](OC(=O)[C@H](C)N(C)C(=O)CCC(C)(C)S)[C@]1(C)O[C@H]1[C@H](C)[C@@H]1C[C@@](O)(NC(=O)O1)[C@H](OC)/C=C/C=C(\C)C2 [Free DM4]
T47D cells; Table 19
  % Kill: 100%
  IC50: 0.5 nM
HEK293 (293) cells; 293, Table 19
  % Kill: 100%
  IC50: 0.6 nM
[1]; Table 20
  % Kill: 90%
  IC50: 2 nM
MCF7 (MCF7/ATCC) cells; Table 20
  % Kill: 90%
  IC50: 1.3 nM

## CC[C@H](C)[C@@H]([C@@H](CC(=O)N1CCC[C@H]1[C@H](OC)[C@@H](C)C(=O)N[C@H](C)[C@@H](O)c1ccccc1)OC)N(C)C(=O)[C@@H](NC(=O)[C@@H](NC)C(C)C)C(C)C [Free MMAE] (H-[NMeV]V[Dil][Dolaproine]-X1)
T47D cells; Table 19
  % Kill: 100%
  IC50: 1 nM
PC3 cells; Table 18
  % Kill: 90%
  IC50: 1.4 nM
HEK293 (293) cells; 293, Table 19
  % Kill: 100%
  IC50: 0.9 nM
PC3/hPRLR cells
  % Kill: 77%
  IC50: 1 nM
[1]; Table 18
  % Kill: 95%
  IC50: 1.5 nM
[1]; Table 20
  % Kill: 95%
  IC50: 1.5 nM
MCF7 (MCF7/ATCC) cells; Table 18
  % Kill: 83%
  IC50: 2.4 nM
MCF7 (MCF7/ATCC) cells; Table 20
  % Kill: 80%
  IC50: 2.4 nM

## COc1cc2cc(c1Cl)N(C)C(=O)C[C@H](OC(=O)[C@H](C)N(C)C(=O)CCSSC)[C@]1(C)O[C@H]1[C@H](C)[C@@H]1C[C@@](O)(NC(=O)O1)[C@H](OC)/C=C/C=C(\C)C2 [Me-SS-May Free DM1]
T47D cells; Table 13, without PRL
  % Kill: 100%
  IC50: 0.3 nM
HEK293 (293) cells; HEK293, Table 13, without PRL
  % Kill: 94%
  IC50: 0.6 nM

B1: H1H6765P-DM1: anti-PRLR antibody H1H6765P conjugated to DM1 through an SMCC linker (conjugate)
VH: EVQLVESGGGVVRPGGSLRLSCVGSGFSFDDHGMNWVRQGPGKGLEWVSGFNWNGGSTNYAESVKGRFTISRDNARNSLFLQMNSLRAEDTALYYCVRGRSGWFNDAFDVWGPGTMVTVSS
VL: EIVLTQSPGTLSLSPGERATLSCRASQTINSNYLAWYRQKPGQTPRLLIYGTSSRATGIPDRFSGSGSGTDFSLTISRLEPEDFAVFYCQQYAGLPTFGPGTKVDIK
MCF7/PRLR tumors; multi-dose 5 mg/kg
  Average Tumor Growth Inhibition (%): 122%
MCF7/PRLR tumors; multi-dose 15 mg/kg
  Average Tumor Growth Inhibition (%): 136%
  Final Tumor size mm^3 (mean ± SEM): 0 ± 0 mm^3
PC3 cells; Table 11, 3 days
  IC50: 200 nM
PC3/PRLR tumors; multi-dose 5 mg/kg
  Final Tumor size mm^3 (mean ± SEM): 489 ± 70 mm^3
PC3/PRLR tumors; multi-dose 15 mg/kg
  Average Tumor Growth Inhibition (%): 98%
  Final Tumor size mm^3 (mean ± SEM): 181 ± 42 mm^3
PRLR expressing cells
  cell killing, non-cleavable DM1 ADCs versus cleavable MMAE ADCs: nearly equivalent cell killing
T47D#11 tumors; multi-dose 5 mg/kg
  Final Tumor size mm^3 (mean ± SEM): 183 ± 28 mm^3
T47D#11 tumors; multi-dose 15 mg/kg
  Average Tumor Growth Inhibition (%): 111%
  Final Tumor size mm^3 (mean ± SEM): 69 ± 12 mm^3
T47D#11 tumors
  T47D #11 tumor growth: potently inhibited tumor growth

B2: H1H6765-mc-VC-PAB-MMAE (conjugate)
VH: EVQLVESGGGVVRPGGSLRLSCVGSGFSFDDHGMNWVRQGPGKGLEWVSGFNWNGGSTNYAESVKGRFTISRDNARNSLFLQMNSLRAEDTALYYCVRGRSGWFNDAFDVWGPGTMVTVSS
VL: EIVLTQSPGTLSLSPGERATLSCRASQTINSNYLAWYRQKPGQTPRLLIYGTSSRATGIPDRFSGSGSGTDFSLTISRLEPEDFAVFYCQQYAGLPTFGPGTKVDIK
PRLR expressing cells
  cell killing, non-cleavable DM1 ADCs versus cleavable MMAE ADCs: nearly equivalent cell killing

B3: H1H6958N2-mc-VC-PAB-MMAE (conjugate)
VH: QVQLVESGGGVVQPGRSLRLSCGASGFTFRNYGMQWVRQGPGKGLEWVTLISFDGNDKYYADSVKGRFTISRDNSKNTLFLQMNSLRTEDTAVYYCARGGDFDYWGQGTLVTVSS
VL: DIQMTQSPSSLSASVGDRVTITCRASQDIRKDLGWYQQKPGKAPKRLIYAASSLHSGVPSRFSGSGSGTEFTLTISSLQPEDFATYYCLQHNSYPMYTFGQGTKLEIK
PC3 cells; Table 18
  % Kill: 39%
PRLR expressing cells
  cell killing, non-cleavable DM1 ADCs versus cleavable MMAE ADCs: nearly equivalent cell killing

B4: H1H6953-mc-vc-PAB-MMAE (conjugate)
VH: EVQLLESGGGLVQPGGTLRLSCAASGFTFSAYAMSWVRQAPGKGLEWVSSINVRAGDTYYADSVKGRFTISRDNSKNTLFLLMNSLRAEDTAAYYCAKARYSSNWGFDFWGQGTLVTVSS
VL: DIVMTQSPDSLTVSLGARTTINCQSSQTILHSSNNHNYLAWYQQKPGLPPKLLIYWSSTRESGVPDRFSGSGSGTDFTLTISSLQAEDVAIYYCQQYSNTPYTFGQGTKLEIN
PRLR expressing cells
  cell killing, non-cleavable DM1 ADCs versus cleavable MMAE ADCs: nearly equivalent cell killing

B5: H1H6782P-DM1: anti-PRLR antibody H1H6782P conjugated to DM1 through an SMCC linker (conjugate)
VH: EVQLVESGGGLVQPGRSLRLSCAASGFTFDDYAMHWVRQAPGKGLEWVSGIIWNSGHIGYGDSVKGRFTISRDNAKKSLYLQMNSLRAEDTALYYCARDSGRYQSYFDYWGQGTLVTVSS
VL: DIQMTQSPSTLSASVGDRVTITCRASHIISSWLAWYQQKPGKAPKVLIFKASSLESGVPSRFSGSGSGTEFTLTISSLQPDDFATYYCQQYNTYSRTFGQGTKVEIK
MCF7/PRLR tumors; multi-dose 5 mg/kg
  Average Tumor Growth Inhibition (%): 123%
MCF7/PRLR tumors; multi-dose 15 mg/kg
  Average Tumor Growth Inhibition (%): 137%
PC3 cells; Table 11, 3 days
  % Kill: 67%
HEK293 (293) cells; 293, Table 11, 3 days
  % Kill: 86%
PC3/PRLR tumors; multi-dose 5 mg/kg
  Average Tumor Growth Inhibition (%): 69%
  Final Tumor size mm^3 (mean ± SEM): 490 ± 63 mm^3
PC3/PRLR tumors; multi-dose 15 mg/kg
  Final Tumor size mm^3 (mean ± SEM): 321 ± 33 mm^3
T47D#11 tumors; multi-dose 5 mg/kg
  Final Tumor size mm^3 (mean ± SEM): 293 ± 20 mm^3
T47D#11 tumors; multi-dose 15 mg/kg
  Average Tumor Growth Inhibition (%): 106%
  Final Tumor size mm^3 (mean ± SEM): 124 ± 36 mm^3
T47D#11 tumors
  T47D #11 tumor growth: potently inhibited tumor growth
